# According to US20050033056A1, “Hydroxylated indole derivatives and uses thereof” (priority 2001, published 2005):
# Legend:
# [1] = test system: CYP1A1/2; experiment: CYP induction in primary human hepatocytes, Western immunoblotting: CYP1A1/2; assay type: cell-based; details: 10 or 50 μM for 72 hours; hepatocytes from three donors
# Protocol: (§1) Upon receiving a primary culture of human hepatocytes in 6-well plates, the culture medium containing streptomycin/penicillin was refreshed (2 ml/well). […] Compound 1 stock solution was added to the culture medium at a 1:400 ratio (v/v). The culture medium and testing compounds were replenished every 24 hours.
# (§2) At the end of the treatment, the cells were harvested into 1 mL of phosphate-buffered saline (PBS) after washing twice. The cells were precipitated by centrifugation, and were resuspended in PBS (approximately 50 μL). The sample preparation, after mixing with […] of Laemmli buffer (62.5 mM Tris-HCl containing 2% SDS, 25% glycerol, and 0.01% bromophenol, pH 6.8) and being rocked for 2-4 hours, was mixed with 10 μL of 2-mercaptoethanol, and heated at 90° C. for 10 minutes before electrophoresis.
# (§3) Proteins were resolved in a 12% SDS-PAGE gel using a mini gel apparatus at a constant voltage ([…]) for 70-80 minutes, and transferred onto a polyvinylidene difluoride (PVDF) membrane using a membrane-transferring unit at a constant voltage ([…]) for 60 minutes. The membrane was blocked by 5% non-fat dried milk (NFDM) blotting buffer (PBS containing 0.05% Tween 20) at 4° C. overnight. […] CYP proteins were detected by […] using an X-ray developer.
# [2] = test system: major CYP expression; experiment: CYP induction in primary hepatocyte cultures (summary statement, major CYPs); assay type: cell-based, human; details: 72 hour exposure to 10 or 50 μM; primary hepatocyte cultures from three subjects
# Protocol: as §1, §2, §3
# [3] = target: T1, 5-HT1A receptor (Homo sapiens, UniProt P08908); details: background statement, see WO 98/43956 and EP 0 976 732 A1; cited from earlier work
# T1 sequence (P08908 1-422): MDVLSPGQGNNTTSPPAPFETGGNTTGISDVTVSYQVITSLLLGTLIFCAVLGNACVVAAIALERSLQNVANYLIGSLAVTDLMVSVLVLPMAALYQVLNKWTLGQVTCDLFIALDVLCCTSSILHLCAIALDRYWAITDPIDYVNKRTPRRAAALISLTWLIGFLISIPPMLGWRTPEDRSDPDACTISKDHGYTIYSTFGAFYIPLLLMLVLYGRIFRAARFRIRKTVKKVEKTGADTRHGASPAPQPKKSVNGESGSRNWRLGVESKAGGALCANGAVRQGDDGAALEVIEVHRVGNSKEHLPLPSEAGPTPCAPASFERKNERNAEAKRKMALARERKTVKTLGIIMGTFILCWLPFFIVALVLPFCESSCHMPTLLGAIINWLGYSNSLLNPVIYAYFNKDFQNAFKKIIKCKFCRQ
# [4] = target: CYP2C19 (Homo sapiens, UniProt P33261); experiment: Compound 1 metabolism / metabolite formation by recombinant CYP2C19; assay type: in vitro ADME; design: purchased Gentest Corp. (Woburn, Mass.); host or cells: insect cells (microsomal preparation)
# Protocol: The metabolism of Compound 1 was determined by the disappearance of Compound 1 or the appearance of Compound 1 metabolites in reaction mixtures as compared to respective controls. Compound 1 was incubated in the reconstituted in vitro reaction systems containing pooled human liver S9 fractions, microsomal preparations, or recombinant hepatic CYP forms, including CYP1A2, CYP2C9, CYP2C19, CYP2D6, CYP2E1, and CYP3A4. The reaction mixture (total volume of 250 μL) contained 0.5 mg of liver microsomal protein, 50 or 25 pmol of recombinant CYP, and Compound 1 (50-80 μM) in 50 mM Tris buffer containing 15 mM MgCl2 (pH 7.4). After incubating at 37° C. with gentle shaking for 1 minute, the reaction was initiated by adding 25 μL of NADPH solution (20 mg/mL), and was carried out for 1 hour. The reaction was terminated by quickly cooling the test tube on ice, followed by the addition of an equal volume of 100% methanol. The samples were centrifuged in a desktop centrifuge at 14,000 rpm for 5 minutes, and the supernatants were filtered through syringe filters (13 mm, 0.45 μm). The filtrates were subjected to analysis using LC/MS (ion trap) or LC/MS/MS.
# 1. LC/MS (LCQ ion trap mass spectrometer, Finnigan Corp., San Jose, Calif.): Hewlett Packard 1100 HPLC system (Waldbronn, Germany) consisted of a binary pump, an autosampler, a column compartment unit, and an online variable wavelength UV detector (VWD). The detector was monitored at 270 nm, which is the UVmax of Compound 1 predetermined by scanning between 225-400 nm using a photodiode array detector (PDA). The metabolites were separated on a Hewlett Packard Eclipse C18 column (150×2.1 mm). The mobile phases were 10 nmM ammonium acetate at pH 4.8 (A) and acetonitrile (B). The gradient (B) was 10% (0-6 minutes), 22% (12-22 minutes), 90% (25-30 minutes), and 10% (31 minutes and after). The flow rate was 0.25 mL/minute. Software Navigator (Version 1.2, Finnigan Corp.) was used to control the HPLC and MS and to acquire the data. The MS was operated at positive electrospray ionization (ESI) with 5.2 kV ionization potential and 220° C. heated capillary temperature. The product ion spectra were generated under 24V collision energy, which was optimized for the fragmentation of Compound 1.
# 2. LC/MS/MS (SCIEX API2000 triple quadrupole mass spectrometer, PE Biosystem, Foster City, Calif.): The same HPLC system described above was coupled with a tandem mass spectrometer. The metabolites were separated on a Sulpelco Discovery C18 column (150×2.1 mm), and the mobile phase described previously was run at 1.0 mL/min with a 1:10 split. The gradient (B) was 20% (0-6 minutes), 60% (14-18 minutes), 95% (20-24 minutes), and 20% (25 minutes and after). The operation of the HPLC and the MS/MS was controlled by MacChrom (Version 1.6, PE Biosystem). […]
# Sequence of CYP2C19 (P33261 whole entry): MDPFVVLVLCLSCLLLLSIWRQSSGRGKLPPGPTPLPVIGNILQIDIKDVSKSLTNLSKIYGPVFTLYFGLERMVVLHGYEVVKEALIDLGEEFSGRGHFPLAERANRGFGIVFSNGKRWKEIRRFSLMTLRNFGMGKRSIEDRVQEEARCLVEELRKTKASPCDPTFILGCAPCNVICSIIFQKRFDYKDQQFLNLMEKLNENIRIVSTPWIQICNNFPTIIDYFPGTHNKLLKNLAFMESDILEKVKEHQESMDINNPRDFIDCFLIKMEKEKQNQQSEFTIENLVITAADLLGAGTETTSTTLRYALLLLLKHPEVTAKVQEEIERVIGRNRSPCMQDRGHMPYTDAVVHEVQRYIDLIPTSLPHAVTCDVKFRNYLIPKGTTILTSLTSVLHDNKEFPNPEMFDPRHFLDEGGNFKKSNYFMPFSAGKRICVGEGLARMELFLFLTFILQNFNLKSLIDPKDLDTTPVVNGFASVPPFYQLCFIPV
structure (smiles),measurement,setting,value
"CNC(=O)Cc1ccc2ccn(C3CCN(CCc4ccccc4F)CC3)c2c1 [Compound 1, N-methyl-[1-[1-(2-fluorophenethyl)piperidine-4-yl]-1H-indol-6-yl] acetamide]",expression of CYP1A1/2 (Western immunoblotting),[1],did not increase
same,Induction of major CYP expression (immunochemical detection),[2],not detected
same,"IC50, binding to 5-HT1A receptor",[3],low nanomolar
same,metabolism of Compound 1 by CYP2C19 (in words),[4]; approximately 50 μM of Compound 1,metabolized
same,Rel. Amount (%),"[4]; recombinant CYP2C19, estimated by UV absorbance at 270 nm, metabolite formed or Compound 1 left after 1 hour with NADPH",42%
